# Earlier results, collected in US9579404B2, “Lanthanoid complex capsule and particle contrast agents, methods of making and using thereof” (New York University, priority 2011, dated 2017).
# Conditions: in H2O at 9.4 T (400 MHz), 25° C.; from Siddiqui et al. 2009
smiles,measurement,value
"O=C([O-])CN(CCN(CC(=O)[O-])CC(=O)[O-])CCN(CC(=O)[O-])CC(=O)[O-].[Gd+3] [Gd[DTPA]^2−, gadolinium diethylenetriamine-N,N,N′,N″N″-pentaacetate]",Relaxivity (r1) per Gd,4.6^a s^−1mM^−1
